One data set addresses T1, E. coli LRS (Escherichia coli, UniProt P07813).
T1 construct: made in house
The experiment in a line: Leucine tRNA synthetase (LRS) enzyme inhibition assay. The data set is classed as biochemical. On the procedure: (§1) (Test Example 1) Leucine tRNA Synthetase (LRS) Enzyme Inhibition Assay [IC50]
(§2) E. coli and P. aeruginosa LRS enzymes were cloned, expressed and purified in-house. The IC50 values were determined by using following assay protocol.
(§3) Test compounds were diluted in milli-Q water. 5 μL (microliter) of test compound dilution was mixed with 20 μL of reaction mixture consisting of 100 millimolar Tris (Trizma base from Sigma), 120 millimolar potassium chloride (Sigma), […] magnesium chloride (Sigma), 50 millimolar dithiothreitol, 50 mg/mL E. coli tRNA (Roche), 150 micromolar leucine (Sigma), 0.5 microcurie of ^3H Leucine (Amersham) and 20 μL of appropriate dilution of LRS enzyme, incubate in shaker at about 30° C. for 20 minutes. The reaction was started by adding 5 μL of 40 millimolar ATP (Sigma) and incubated on shaker at the same temperature further for 20 minutes. The reaction was quenched with 150 μL ice cold trichloroacetic acid (10%). The content of each well was transferred to 96 well GF/C plates (from Pall), and washed with 150 μL of trichloroacetic acid (5%) using vacuum manifold (from Pall). Plates were dried and read using Microbeta Wallac liquid scintillation counters after adding 100 μL of scintillation cocktail (Perkin Elmer's OptiPhase ‘SuperMix’) to each well. IC50 was calculated with respect to enzyme control after subtracting background (No enzyme control) using Graph Pad Prism software.

The next data set concerns the target T2, P. aeruginosa LRS (Pseudomonas aeruginosa, UniProt Q9HX33).
T2 construct: made in house
The data set is described as above. In kind it is biochemical. Particulars: 3H leucine incorporation. As for the experimental part:
as §1, §2, §3

The subject of data set [1] is E. coli ATCC 25922. The experiment in a line: Bacterial susceptibility testing (MIC, CLSI microdilution). The data set is classed as cell-based. Conditions: Escherichia coli, ATCC25922. As for the experimental part:
(§4) (Test Example 2) Method of Testing Susceptibility of Bacterial [MICs]
(§5) Minimum inhibitory concentration (MIC) were determined as recommended by the Clinical and Laboratory Standards Institute (CLSI) in 2010 (M100-520), in 2011 (M100-521), 2012 (M100-522) and in 2013 (M100-523) with minor modifications.
(§6) In short, bacterial cultures were streaked on Muller Hinton Agar plates and incubated at 35±2° C. for about 18 to 20 hours. Following day colony suspension was prepared in saline and adjusted to 0.5 McFarland using Densitometer. This culture was further diluted 100 fold in Muller Hinton Broth or M9 minimal media or pooled human urine and used for MIC determination. The test compounds were prepared in dimthylesulfoxide (DMSO) at concentration of 1 mg/mL, and diluted to 32 μg/mL in respective media. Further two fold serial dilution were prepared in 96 well microtiter plates. 50 μL of diluted cultures were added to all wells and incubated at 35±2° C. for about 16 to 20 hours.
For orientation: Dilution methods test growth across graded concentrations, often in twofold steps.

The subject of another data set is K. pneumoniae ATCC 13883. The data set is described as above. Particulars: Klebsiella pneumoniae, ATCC13883. The data set is classed as cell-based. As for the experimental part: as §4, §5, §6
The subject of another data set is P. aeruginosa. The description is as above. The data set is classed as cell-based. Conditions: Pseudomonas aeruginosa, strain not stated, read-out: MIC against P. aeruginosa. As for the experimental part: as §4, §5, §6
Another data set deals with E. coli GK00432. As to the kind of experiment: In vivo efficacy in E. coli murine neutropenic thigh infection model. Also noted: species or system Swiss albino mice. Particulars: subcutaneous. As for the experimental part: (Test Example 3b) In Vivo Efficacy in E. coli Murine Neutropenic Thigh Infection Model
Efficacy of test compounds were evaluated by subcutaneous (SC) route against E. coli GK00432 in neutropenic mouse thigh infection model. Study was performed in Swiss albino mice of either sex weighing 20±2 g. Neutropenia was induced by intraperitoneal injections of cyclophosphamide given twice prior to infection (150 mg/kg, at 4 days prior to infection, and 100 mg/kg, at 1 day prior to infection). E. coli inoculum (0.1 mL) was injected intra-muscularly in the thigh muscle. After 2 hours, test compound at a dose of 30 mg/kg and 60 mg/kg body weight were administered by subcutaneous route and one group of mice (n=5) was sacrificed to evaluate total live bacterial count per thigh as baseline bacterial loads. Remaining three doses of test compound were administered by subcutaneous route after […] hours of the infection. Animals were euthanized, thigh muscles were removed aseptically and homogenized in phosphate buffered saline (3 mL) and serial dilutions plated Tryptone Soya Agar plates 26 hours post infection.

The test system of data set [2] is E. coli ATCC 25922. As to the kind of experiment: MICs in Muller Hinton Broth and pooled human urine. In kind it is cell-based. Conditions: Escherichia coli, ATCC25922. On the procedure:
as §6
(Test Example 4) MICs in Human Urine Against E. coli and K. pneumonia
Many antibacterial compounds like fluroquinolones loose activity in human urine at acidic pH (acidic urine promotes rigorous bacterial growth). MICs were performed using CLSI guidelines (2011) against E. coli 25922 in Muller Hinton Broth (MHB) and pooled human urine.

The test system of data set [3] is P. aeruginosa PAO1 (parent, MexAB del, MexAB over expression). The experiment in a line: MICs against Pseudomonas efflux pump mutants. In kind it is cell-based. On the procedure: as §6
(Test Example 5) MICs Against Pseudomonas Efflux Pump Mutants
Multidrug-resistant (MDR) P. aeruginosa isolated from nosocomial infections in intensive care units (ICUs) are often related to altered regulation of the specific efflux pumps and porins in P. aeruginosa strains. Tested compounds that show similar activity against efflux pump overproducers and lab strains can be predictive of activity in nosocomial patients infected with MDR strains. To identify such compounds we have determined MICs against P. aeruginosa PAO1 against Efflux deleted and overproducer strains.

The subject of the next data set is P. aeruginosa PAO-1. The experiment in a line: In vivo efficacy in P. aeruginosa PAO1 murine lung infection model. Conditions: subcutaneous 75 mg/kg twice daily. As for the experimental part: (Test Example 3c) In Vivo Efficacy in P. aeruginosa PAO1 Murine Lung Infection Model Overnight grown culture of P. aeruginosa PAO-1 on TSA agar was inoculated in Brain heart infusion broth (BHI, DIFCO) and grown in a shaker incubator with shaking at 110 rpm at 35±2° C. overnight. The culture was subcultured in 50 mL of BHI and incubated again at 110 rpm at 35±2° C. on a shaker incubator till the optical density of the culture reaches 0.5-0.7 units. For infection, animals were weighed, randomized and anesthetized by giving isofluorane. Under anesthesia the animals were infected with 50 μL of the inoculum prepared as above by intranasal route. The test compounds were administered at 75 mg/kg body weight by subcutaneous route after 1 hour and 6 hours post infection. Animals were euthanized, lungs were removed aseptically and homogenized in PBS (3 mL) and serial dilutions plated on TSA plates 24 hours post infection.

Data set [4] is described as follows: Oral bioavailability (BA) in rats. In kind it is in vivo. Particulars: male, rat, plasma, 8.5 mg/kg body weight; Sprague Dawley Rats, 8.5 mg/kg oral, 4.25 mg/kg intravenous; read-out: oral absolute bioavailability. On the procedure: (Test Example 8a) Oral Bioavailability (BA) in Rats
To Male Sprague Dawley Rats (215±10 g) test compound was administered as 2.0 mg/mL solution in milli-Q water (pH 5.0) by intravenous and oral route. The final dose was 4.25 mg/kg body weight (intravenous) or 8.5 mg/kg body weight (oral). Plasma samples analyzed for test compound using LC-MS/MS method. Estimation of pharmacokinetic parameters was done by using moment analysis. WinNonlin software 6.1 (Pharsight) was utilized for the estimation of PK parameters and oral bioavailability.

A short description of data set [5]: Oral bioavailability (BA) in mouse. In kind it is in vivo. Conditions: female, plasma, 8.5 mg/kg body weight, Swiss mice, 8.5 mg/kg oral, 4.25 mg/kg intravenous, read-out: oral absolute bioavailability. As for the experimental part: (Test Example 8b) Oral Bioavailability (BA) in Mouse
To Female Swiss mouse (23±3 g) test compound was administered as 0.5 mg/mL intravenous and 1 mg/mL oral solution in milli-Q water (pH 5.0). The final dose was 4.25 mg/kg body weight (intravenous) and 8.5 mg/kg body weight (oral route). Plasma samples analyzed for test compound using LC-MS/MS method. Estimation of pharmacokinetic parameters was done by using moment analysis. WinNonlin software 6.1 (Pharsight) was utilized for the estimation of PK parameters and oral bioavailability.

From US9944660B2, “Tricyclic benzoxaboroles as antibacterial agents” (Daiichi Sankyo Company, Limited, priority 2014, dated 2018) come the findings set out here.

Read-outs that look alike come from different tables or passages of the source.

T1 sequence (P07813 whole entry): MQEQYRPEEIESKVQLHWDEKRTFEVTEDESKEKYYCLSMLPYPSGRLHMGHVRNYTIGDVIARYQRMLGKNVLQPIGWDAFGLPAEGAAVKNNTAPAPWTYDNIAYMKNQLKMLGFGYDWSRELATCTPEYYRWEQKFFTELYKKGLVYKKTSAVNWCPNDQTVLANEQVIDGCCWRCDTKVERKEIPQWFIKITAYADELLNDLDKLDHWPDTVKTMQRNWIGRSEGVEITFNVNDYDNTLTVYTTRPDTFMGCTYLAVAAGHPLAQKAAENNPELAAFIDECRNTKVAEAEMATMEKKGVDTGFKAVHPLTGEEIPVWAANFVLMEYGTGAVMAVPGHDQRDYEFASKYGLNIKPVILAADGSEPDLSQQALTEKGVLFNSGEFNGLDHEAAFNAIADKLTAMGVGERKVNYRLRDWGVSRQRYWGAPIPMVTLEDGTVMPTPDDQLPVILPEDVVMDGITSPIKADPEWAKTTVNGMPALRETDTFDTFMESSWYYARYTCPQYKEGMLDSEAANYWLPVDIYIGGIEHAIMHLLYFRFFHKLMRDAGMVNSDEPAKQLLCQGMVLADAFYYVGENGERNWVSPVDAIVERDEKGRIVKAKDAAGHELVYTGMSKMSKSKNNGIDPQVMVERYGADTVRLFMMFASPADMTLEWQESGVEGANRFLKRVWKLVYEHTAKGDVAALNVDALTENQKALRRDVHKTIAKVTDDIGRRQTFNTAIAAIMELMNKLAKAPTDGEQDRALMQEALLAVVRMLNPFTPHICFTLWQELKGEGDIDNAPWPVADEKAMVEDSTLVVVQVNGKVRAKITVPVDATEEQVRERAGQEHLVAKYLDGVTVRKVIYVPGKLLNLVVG
T2 sequence (Q9HX33 whole entry): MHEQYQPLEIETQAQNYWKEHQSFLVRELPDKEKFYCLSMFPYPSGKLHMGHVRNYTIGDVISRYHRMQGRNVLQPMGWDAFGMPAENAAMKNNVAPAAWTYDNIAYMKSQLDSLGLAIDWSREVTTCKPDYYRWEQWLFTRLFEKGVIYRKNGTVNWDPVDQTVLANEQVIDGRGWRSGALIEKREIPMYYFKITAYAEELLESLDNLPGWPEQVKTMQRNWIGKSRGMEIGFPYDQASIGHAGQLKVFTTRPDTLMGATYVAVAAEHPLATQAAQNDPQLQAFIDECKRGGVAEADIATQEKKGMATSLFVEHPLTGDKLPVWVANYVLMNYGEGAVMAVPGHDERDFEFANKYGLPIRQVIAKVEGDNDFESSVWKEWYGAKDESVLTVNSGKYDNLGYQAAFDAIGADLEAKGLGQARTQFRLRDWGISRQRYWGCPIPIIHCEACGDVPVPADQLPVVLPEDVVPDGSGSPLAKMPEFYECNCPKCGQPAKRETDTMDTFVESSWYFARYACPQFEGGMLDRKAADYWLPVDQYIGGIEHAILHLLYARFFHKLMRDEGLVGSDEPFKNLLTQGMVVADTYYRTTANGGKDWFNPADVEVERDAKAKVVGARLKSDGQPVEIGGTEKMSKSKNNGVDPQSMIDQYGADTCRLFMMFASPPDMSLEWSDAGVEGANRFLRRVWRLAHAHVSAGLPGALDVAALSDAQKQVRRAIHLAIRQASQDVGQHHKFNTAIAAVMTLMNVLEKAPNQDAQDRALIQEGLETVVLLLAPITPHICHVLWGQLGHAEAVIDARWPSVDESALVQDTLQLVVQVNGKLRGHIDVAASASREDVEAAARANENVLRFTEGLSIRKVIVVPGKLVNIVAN

Regarding `Cl.NCC1OB(O)c2ccc3c(c21)OCO3` (stereo not shown) [Compound 5, 8-(aminomethyl)[1,3]dioxolo[4,5-e][2,1]benzoxaborol-6(8H)-ol hydrochloride], the IC50 – broadly, the concentration at which inhibition is half-maximal – against E. coli LRS came out at 800 nM; at P. aeruginosa LRS, 2.3 µM. In addition, the MIC was determined as 1 µg/mL against E. coli ATCC 25922 [1]; 1 µg/mL in the data set on K. pneumoniae ATCC 13883; 8 µg/mL with P. aeruginosa; 2 µg/mL in the data set with E. coli ATCC 25922 [2] (Muller Hinton Broth, read-out: E. coli ATCC 25922 MIC (μg/mL) MHB); 4 µg/mL in the data set on E. coli ATCC 25922 [2] (pooled human urine pH 5.5, read-out: E. coli ATCC 25922 MIC (μg/mL) Urine pH 5.5); 4 µg/mL in data set [3] (PAO1, read-out: MIC (μg/mL) P. aeruginosa PAO1 MexAB del). In addition, the MIC was 8 µg/mL in data set [3] (PAO1, read-out: MIC (μg/mL) P. aeruginosa PAO1 MexAB over expression) and 4 µg/mL in data set [3] (PAO1, read-out: MIC (μg/mL) P. aeruginosa PAO1 Parent). Moreover, the “log reduction in colony forming units (cfu) from 26 hours untreated control” value is listed as 3.1 log in the data set on E. coli GK00432 (30 mg/kg four times daily (QID)) and 3.8 log with E. coli GK00432 (60 mg/kg four times daily (QID)).
In the case of `Cl.NC[C@H]1OB(O)c2ccc3c(c21)OCO3` (single isomer, unassigned) [Compound 6], the MIC was 1 µg/mL in the data set on E. coli ATCC 25922 [1], 1 µg/mL against K. pneumoniae ATCC 13883 and 2 µg/mL with P. aeruginosa. Further, the “log reduction in cfu from 24 hours untreated control” value in the data set with P. aeruginosa PAO-1 is reported as 4.04 log. The “log reduction in cfu's from baseline” value in the data set with P. aeruginosa PAO-1 is reported as 2.58 log. Moreover, the bioavailability (commonly the share of a dose that reaches the circulation, judged against a reference dose that is usually intravenous) turned out to be 72% in data set [4] and 62% in data set [5].
